From patent US20240075000A1 (priority 2021, published 2024)

Columns and labels:
[1] = system: patients with post-COVID-19 fatigue; experiment: clinical trial in Long Haul post-COVID-19 fatigue; details: oral 500 mg BID, 6 weeks
Procedure: Fatigue is assessed by the Chalder Fatigue Scale, the Fatigue Severity Scale, and PROMIS-Fatigue-Short Form 7a. Scores are summarized as means and standard deviations and confidence intervals will be calculated. Changes are also summarized as effect sizes. […] All patients provided written informed consent to participate in the study prior to being screened.
18 patients who suffered from “Long Haul” post-COVID-19 fatigue for an average of 6 months were recruited to a clinical trial.

[2] = system: glucose uptake; details: diabetic patients and Alzheimer's patients; cited from earlier work
[3] = system: pneumonia patient; experiment: fatigue after pneumonia, patient testimonial; type: in vivo, human; details: 500 mg daily
From the text: The Inventor has supplied Anhydrous Enol-Oxaloacetate for fatigue after pneumonia. Pneumonia patients often suffer from physiological fatigue. In a retrospective study of 506 adults with clinical and radiographic evidence of pneumonia, […] of the patients suffered from fatigue at 90 days after diagnosis. (Metlay J P, Fine M J, Schulz R, Marrie T J, Coley C M, Kapoor W N, et al. Measuring symptomatic and functional recovery in patients with community-acquired pneumonia. J Gen Intern Med. 1997; 12(7):423-30). […] The place where oxaloacetate made the most significant difference for me was in alleviation of the crushing fatigue that accompanied the pneumonia. […] On querying nurses and physical therapists about this response, the universal answer was that it was “typical.” Speaking with people who had had pneumonia at different ages—granted that this is anecdotal—garnered consistent stories of extreme fatigue and a slow recovery that took years to achieve prior energy levels even with people who had been physically active teenagers at the time. • I was in the hospital for 2 weeks and then in skilled care for about 6 weeks, putting me in the 40% of the population that don't manage to avoid hospitalization. […]

[4] = system: patient with Alzheimer's disease; experiment: Alzheimer's disease patient fatigue case; type: in vivo, human; details: caregiver testimonial
From the text: A patient with Alzheimer's disease experienced significant muscle and mental fatigue. […] The testimonial is shown below.

[5] = system: post-COVID-19 fatigue patient; experiment: post-COVID-19 fatigue case, physician (Example 3); details: 500 mg BID
[6] = system: Mouse Soleus Muscle; details: normal cells, fatigue stimulated by electrical current applied to the muscle; cited from earlier work
[7] = system: cancer patients; experiment: cancer patient fatigue case reports (Examples 13-17); type: in vivo, human
From the text: A cancer patient with recurrent stage 4 glioblastoma multiforme encountered significant fatigue as part of the ongoing disease.
A cancer patient with Stage 2 primary prostate cancer experienced significant fatigue. […] The patient has been able to eliminate pathological fatigue for 4 years now and is continuing the dosage.
A cancer patient with stage 4 primary hepatocellular carcinoma experienced significant fatigue, and due to cancer progression, was placed in hospice.
A cancer patient with stage 4 breast cancer experienced pathological fatigue.
A cancer patient with stage 3 colon cancer experienced pathological fatigue. […] The patient continued to be fatigue-free and went into cancer remission, which was also fatigue free.

[8] = LD50 toxicity; details: in vivo
Procedure: The dose ratio between toxic and therapeutic effects is the therapeutic index and it can be expressed as the ratio LD50/ED50. […] The “no observable adverse effects level” (NOAEL) in a 90-day sub-chronic rat study was 500 mg/kg (the highest dose in the test).

[9] = system: patients with ME/CFS; experiment: clinical trial in ME/CFS, three dosage levels; type: in vivo, human
[10] = system: ALS patient; experiment: ALS patient on long-term supplementation; type: in vivo, human; details: 3,000 mg daily, after 8 months
From the text: For ALS, this is surprising and welcome news as the anticipated decline rate for this period of time ranges from 12% to 43% as measured by the ALS FRS. (Ong M L, Tan P F, Holbrook J D. Predicting functional decline and survival in amyotrophic lateral sclerosis. PLoS One. 2017; 12(4):e0174925. Published 2017 Apr. 13. doi:10.1371/journal.pone.0174925).
The patient's email: • “Dear Alan, Good afternoon. […] We are thrilled! Could we please have some more medicine? Thanks!”

[11] = system: cancer cells; details: glioblastoma; cited from earlier work
[12] = system: mitochondrial production and density; details: cited from earlier work
[13] = system: patient diagnosed with Fibromyalgia; experiment: Fibromyalgia patient fatigue case; type: in vivo, human
From the text: A patient diagnosed with Fibromyalgia had significant fatigue. […] They increased their dosage to 6 capsules per day and has seen more than a 50% improvement in their fatigue.

[14] = system: Parkinson's patients; experiment: double blinded placebo-controlled trial in Parkinson's patients, MDS-UPDRS fatigue question 1.13; type: in vivo, human; details: 2 capsules benaGene (100 mg oxaloacetate/150 mg ascorbic acid) per day, 4 months, P value<0.05, 13 patients
Procedure: As used herein, the term “MDS-UPDRS” refers to the “Movement Disorder Society-Sponsored Revision of the United Parkinson's Disease Rating Scale” (Goetz et al, Movement Disorder Society-Sponsored Revision of the United Parkinson's Disease Rating Scale (MDS-UPDRS): Scale Presentation and Clinimetric Testing Results, Movement Disorders Vol. 23, No. 15, 2008, pp. 2129-2170).
Based on the findings of the Inventor, a clinical trial was performed on Parkinson's Disease patients. The trial used the MDS-UPDRS (Goetz et al, Movement Disorder Society-Sponsored Revision of the United Parkinson's Disease Rating Scale (MDS-UPDRS): Scale Presentation and Clinimetric Testing Results, Movement Disorders Vol. 23, No. 15, 2008, pp. 2129-2170) (45) as a validated method to clinically measure pathological fatigue in Parkinson's patients. The Fatigue question is as follows: • 1.13 Fatigue • Over the past week, have you usually felt fatigued? This feeling is not part of being sleepy or sad • 0: Normal: No fatigue • 1: Slight: Fatigue occurs.

O=C(O)CC(=O)C(=O)O [oxaloacetate, 2-oxobutanedioic Acid]
adverse events during the trial [1]: no significant adverse events | reduction in fatigue compared to baseline, PROMIS Fatigue Short Form 7a ([1]; 18 patients, P<0.005): 21% | reduction in fatigue from baseline, Fatigue Severity Scale ([1]; 18 patients, P<0.005): 15% | reduction of fatigue from baseline, Chalder Fatigue Scale ([1]; 18 patients, P<0.005): 45% | reduction, Visual Analogue Fatigue Scale ([1]; 18 patients, P<0.05): 56% | glucose uptake [2]: increase glucose uptake | fatigue after Pneumonia [3]: rapid resolution of fatigue | mental and physical pathological fatigue [4]: significantly reduces mental and physical pathological fatigue | side effect reported by the patient [5]: nausea | muscle endurance and muscle fatigue [6]: increase muscle endurance and reduce muscle fatigue | pathological fatigue ([7]; Stage 2 primary prostate cancer, 1,000 mg daily, 4 years): ameliorated | adverse events ([7]; glioblastoma patient, 6,000 mg daily for one year): without any significant adverse events | side effects ([7]; hepatocellular carcinoma patient, 3,000 mg per day for 10 months): without side effects | side effects ([7]; prostate cancer patient, 1,000 mg daily): No side effects | fatigue associated with the cancer ([7]; recurrent stage 4 glioblastoma multiforme, 6,000 mg daily): ameliorated | fatigue ([7]; stage 3 colon cancer, 1,000 mg per day (500 mg BID)): significant reduction in fatigue | fatigue ([7]; stage 4 breast cancer, 1,000 mg per day, after 3 days): significant reduction in fatigue | fatigue ([7]; stage 4 primary hepatocellular carcinoma, 3,000 mg per day): significant reduction in fatigue | LD50 [8]: above 5 g/kg of body weight | reduction from baseline fatigue, Chalder Fatigue Scale ([9]; 500 mg BID, 2 weeks, N=22): 15.3% | reduction in fatigue, Chalder Fatigue Scale ([9]; 500 mg BID, 6-weeks, N=22): 21.9% | reduction in fatigue, Chalder Fatigue Scale ([9]; 1,000 mg BID, 6-weeks, N=25): 30.2% | reduction in fatigue, Chalder Fatigue Scale ([9]; 1,000 mg TID, 2 weeks, N=22): 17.5% | severe Adverse Effects recorded in the study ([9]; 69 patients, all dosage levels): no severe Adverse Effects | patients in the study improved over historical placebo ([9]; historical placebo effect 5.9%): 76.8% | patients who experienced insomnia ([9]; of 69, resolved by moving dosing to breakfast and lunch): 1 patient | patients who experienced dyspepsia ([9]; of 69, resolved by taking with food): 4 patients | function, fatigue/muscle function [10]: no decline in function | glycolysis and formation of lactate [11]: reducing both glycolysis and the formation of lactate | mitochondrial production and density [12]: increased mitochondrial production and density | fatigue ([13]; 2 capsules of 100 mg per day): improvement | improvement in fatigue ([13]; 6 capsules of 100 mg per day): > 50% | improvement of MDS-UPDRS fatigue score over baseline [14]: 28.7%
